What is called inhibition is how much of the control response was suppressed.

Data set [1] concerns 5-HT2 receptor. On the set-up: species or system mice. As to conditions: mouse, in vivo, po.
Data set [2] relates to tyrosine hydroxylase phosphorylation at Ser40. Briefly: CNS phosphoprotein profile, TH. The format is in vivo, mice. As to conditions: 3 mg/kg, 30 or 60 minutes, nucleus accumbens. As for the experimental part: (§1) A comprehensive molecular phosphorylation study is also carried out to examine the central nervous system (CNS) profile of the compounds of Example 1 and Example 3. The extent of protein phosphorylation for selected key central nervous system proteins is measured in mice nucleus accumbens.
(§2) Mice were killed 30 minutes to 2 hours post-injection by focused microwave cranial irradiation, which preserves brain phosphoprotein as it exists at the time of death. The nucleus accumbens was then dissected from each mouse brain, sliced and frozen in liquid nitrogen. Samples were further prepared for phosphoprotein analysis via SDS-PAGE electrophoresis followed by phosphoprotein-specific immunoblotting, as described in Zhu H, et al., Brain Res. 2010 Jun. 25; 1342:11-23. Phosphorylation at each site was quantified, normalized to total levels of the protein (non-phosphorylated), and expressed as percent of the level of phosphorylation in vehicle-treated control mice.

Data set [3] deals with NR2B phosphorylation at Tyr1472. As to the kind of experiment: CNS phosphoprotein profile, NR2B. The note with it: 3 mg/kg, 30-60 minutes, nucleus accumbens. The class given is in vivo, mice. As for the experimental part:
as §1, §2

Data set [4] deals with GluR1 phosphorylation at Ser845. As to the kind of experiment: CNS phosphoprotein profile, GluR1. As to conditions: 3 mg/kg, nucleus accumbens. The format is in vivo, mice. How it is done:
as §1, §2

Data set [5] deals with ERK2 phosphorylation at Thr183 and Tyr185. Briefly: CNS phosphoprotein profile, ERK2. The format is in vivo, mice. The note with it: 3 mg/kg, nucleus accumbens. How it is done:
as §1, §2

The target of data set [6] is D2 (Homo sapiens, UniProt P14416). As to the kind of experiment: biochemical. As to conditions: read-out: inhibition D2.
D2, sequence (P14416 whole entry): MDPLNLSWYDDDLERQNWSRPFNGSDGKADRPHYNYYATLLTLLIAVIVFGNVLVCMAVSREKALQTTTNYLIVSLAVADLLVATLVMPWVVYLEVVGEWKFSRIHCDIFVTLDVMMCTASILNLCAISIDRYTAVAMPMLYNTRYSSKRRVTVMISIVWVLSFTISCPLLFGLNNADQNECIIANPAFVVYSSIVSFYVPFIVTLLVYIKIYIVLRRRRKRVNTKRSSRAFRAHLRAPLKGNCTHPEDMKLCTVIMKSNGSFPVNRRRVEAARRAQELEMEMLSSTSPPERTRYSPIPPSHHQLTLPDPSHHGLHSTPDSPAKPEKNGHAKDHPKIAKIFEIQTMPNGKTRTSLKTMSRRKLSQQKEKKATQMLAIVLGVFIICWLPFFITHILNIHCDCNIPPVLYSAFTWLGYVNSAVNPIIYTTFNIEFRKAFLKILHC
The target of data set [7] is D1 (Homo sapiens, UniProt P21728). As to the kind of experiment: biochemical. As to conditions: read-out: inhibition D1.
D1, sequence (P21728 whole entry): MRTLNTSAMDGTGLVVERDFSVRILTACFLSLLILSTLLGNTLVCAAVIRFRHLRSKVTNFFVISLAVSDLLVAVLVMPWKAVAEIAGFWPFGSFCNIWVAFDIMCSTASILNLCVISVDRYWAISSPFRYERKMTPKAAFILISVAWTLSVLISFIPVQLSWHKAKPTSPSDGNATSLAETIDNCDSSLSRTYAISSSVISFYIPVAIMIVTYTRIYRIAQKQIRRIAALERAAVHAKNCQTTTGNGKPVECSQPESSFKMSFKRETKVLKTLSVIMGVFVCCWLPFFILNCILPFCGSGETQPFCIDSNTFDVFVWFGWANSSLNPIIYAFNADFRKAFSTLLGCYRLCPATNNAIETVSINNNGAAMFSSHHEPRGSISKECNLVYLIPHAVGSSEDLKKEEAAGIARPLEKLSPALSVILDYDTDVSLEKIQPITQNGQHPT
Data set [8] can be described thus: Rat tolerance/dependence study (28 day).
Data set [9] concerns the target Mu opiate receptor (Homo sapiens, UniProt P35372). The format is binding.
A short description of data set [10]: Mouse marble-burying study (OCD model). The class given is in vivo, mice. The note with it: 20 mg/kg intraperitoneal just prior to test. The source says: The marble burying test is used to measure repetitive and anxiety-related behavior in rodents. It is based on the observation that rats and mice will bury either harmful or harmless objects in their bedding, and it has been used as an animal model to measure the effect of pharmacological interventions in treatment of repetitive behavior disorders, such as OCD.
MPEP is a selective mGluR5 glutamate receptor antagonist. […] Mice in groups (1) are orally administered the vehicle, and mice in group (4) are given an intraperitoneal injection of MPEP just prior to the start of the test.
The test is conducted in rectangular cages with 4-5 cm of wood chip bedding in a room with the window shades lowered and the door closed to minimize distractions. Fifteen clean marbles are evenly spaced on top of the bedding in three rows of five marbles. One mouse is placed in each cage. The mouse and cage is left undisturbed for 30 minutes. At the end of the test, the mouse is removed and the number of marbles buried to at least ⅔ of their depth is counted.

Mu opiate receptor, sequence (P35372 whole entry): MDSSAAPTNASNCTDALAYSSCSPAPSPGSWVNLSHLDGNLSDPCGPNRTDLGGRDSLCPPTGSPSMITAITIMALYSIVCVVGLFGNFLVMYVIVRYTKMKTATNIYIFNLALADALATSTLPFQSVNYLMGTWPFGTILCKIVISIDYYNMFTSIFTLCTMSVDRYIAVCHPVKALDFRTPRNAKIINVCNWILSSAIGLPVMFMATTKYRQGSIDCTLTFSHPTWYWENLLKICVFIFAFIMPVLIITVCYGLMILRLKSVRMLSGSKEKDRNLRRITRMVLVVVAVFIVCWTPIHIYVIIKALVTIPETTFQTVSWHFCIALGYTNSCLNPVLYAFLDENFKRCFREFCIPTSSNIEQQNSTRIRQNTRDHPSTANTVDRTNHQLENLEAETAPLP

As to `O=C1CN2c3c(cccc3[C@@H]3CN(CCCC(=O)c4ccc(F)cc4)CC[C@@H]32)N1` [Example 1, 4-((6bR,10aS)-2-oxo-2,3,6b,9,10,10a-hexahydro-1H,7H-pyrido[3′,4′:4,5]pyrrolo[1,2,3-de]quinoxalin-8-yl)-1-(4-fluoro-phenyl)-butan-1-one], the “EC50 for reducing DOI-induced head twitches” value in data set [1] was determined as 0.23 mg/kg. In data set [2], the “effect on tyrosine hydroxylase phosphorylation at Ser40” value was “neither the compound of Example 1 nor of Example 3 has a significant effect”. The “effect on NR2B phosphorylation at Tyr1472” value in data set [3] is listed as “neither the compound of Example 1 nor of Example 3 has a significant effect”. For the same compound, the “GluR1 phosphorylation at Ser845” value in [4] was “slight increase”. Also, in data set [5], the “ERK2 phosphorylation at Thr183 and Tyr185” value was “slight decrease”. Further, in [6], the inhibition at […] is 47%.

Regarding `O=C1CN2c3c(cccc3[C@@H]3CN(CCCC(O)c4ccc(F)cc4)CC[C@@H]32)N1` (stereo partly drawn) [Example 2, 4-((6bR,10aS)-2-oxo-2,3,6b,9,10,10a-hexahydro-1H,7H-pyrido[3′,4′:4,5]pyrrolo[1,2,3-de]quinoxalin-8-yl)-1-(4-fluoro-phenyl)-butan-1-ol], the inhibition at […] in data set [6] was 11%. For the same compound, the inhibition at 0.1 µM in [7] was 13%.

Regarding `O=C1CN2c3c(cccc3[C@@H]3CN(CCCOc4ccc(F)cc4)CC[C@@H]32)N1` [Example 3, (6bR,10aS)-8-(3-(4-fluorophenoxy)propyl)-6b,7,8,9,10,10a-hexahydro-1H-pyrido[3′,4′:4,5]pyrrolo[1,2,3-de]quinoxalin-2(3H)-one], in [1], the “EC50 for reducing DOI-induced head twitches” value is 0.44 mg/kg. The “predominant behavioral and physical effects” value in data set [8] (0.3 mg/kg, dosing phase) is “hunched posture, Straub tail and piloerection”. For the same compound, in data set [8] (0.3 and 3 mg/kg s.c., 28 days), the tolerance result is given as “does not produce tolerance”. In data set [8] (0.3 and 3 mg/kg s.c., on-dose or withdrawal phase), the “effect on body weight, food and water intake or body temperature” value is listed as “no significant effect”.

On to `CN1CCN2c3c(cccc31)[C@@H]1CN(CCCC(=O)c3ccc(F)cc3)CC[C@@H]12` [Formula A, reference compound], for which, in [9], the “activity at the Mu opiate receptor” value was “not active”.

As for `CN1CCN2c3c(cccc31)[C@@H]1CN(CCCC(O)c3ccc(F)cc3)CC[C@@H]12` (stereo partly shown) [Formula B, reference compound], the “EC50 for reducing DOI-induced head twitches” value in [1] was determined as 0.31 mg/kg.

`Cc1cccc(C#Cc2ccccc2)n1` [MPEP, 2-methyl-6-(phenylethynyl)pyridine]: the “Marbles Buried” value in data set [10] came to 0.2.

For `CN1CC[C@]23c4c5ccc(O)c4O[C@H]2[C@@H](O)C=C[C@H]3[C@H]1C5` [Morphine, reference compound], in data set [8] (30 mg/kg orally twice per day), the tolerance and dependence entry is “clear signs of tolerance and dependence”.

(Values after patent publication US11376249B2 (priority 2017, dated 2022).)
